Values after ≈ are worked out from the molar mass of the structure shown. Active and inactive are the calls of the source. No cut-off for these calls is given here.
What was measured:
Escherichia coli [1] = assay: Antibacterial activity against Escherichia coli 12140 by two-fold agar dilution method; assay type: functional
Klebsiella aerogenes = assay: Antibacterial activity against Enterobacter aerogenes ATCC 13048 by two-fold agar dilution method; assay type: functional
Staphylococcus aureus [2] = assay: Antibacterial activity against Staphylococcus aureus 23390 by two-fold agar dilution method; assay type: functional, organism-based
Escherichia coli [3] = assay: Antibacterial activity against Escherichia coli 12140 infected in sc dosed mouse assessed as host protection administered at 1 and 5 hrs post-infection; assay type: functional; details: Escherichia coli, 12140, sc; read-out: PD50
Salmonella paratyphi = assay: Antibacterial activity against Salmonella paratyphi ATCC 12176 by two-fold agar dilution method; assay type: functional, Salmonella enterica subsp. enterica serovar Paratyphi A; details: Salmonella enterica
Klebsiella pneumoniae = assay: Antibacterial activity against Klebsiella pneumoniae 4200 by two-fold agar dilution method; assay type: functional
Shigella flexneri = assay: Antibacterial activity against Shigella paradysenteriae HH 117 by two-fold agar dilution method; assay type: functional
Staphylococcus aureus [4] = assay: Antibacterial activity against penicillin G-resistant Staphylococcus aureus HH 127 by two-fold agar dilution method; assay type: functional
Pseudomonas aeruginosa = assay: Antibacterial activity against Pseudomonas aeruginosa by two-fold agar dilution method; assay type: functional, organism-based
Enterococcus faecalis = assay: Antibacterial activity against Streptococcus faecalis by two-fold agar dilution method; assay type: functional

Cn1nnnc1SCC1=C(C(=O)O)N2C(=O)[C@@H](NC(=O)CSC(F)(F)F)[C@H]2SC1 [CEFAZAFLUR]
MIC (Escherichia coli [1]): 0.4 µg/mL (≈ 0.85 µM)
MIC (Klebsiella aerogenes): 1.6 µg/mL (≈ 3.4 µM)
Activity (Staphylococcus aureus [2]): Active
ED50 (Escherichia coli [3]): 2 mg/kg
MIC (Salmonella paratyphi): 0.4 µg/mL (≈ 0.85 µM)
MIC (Klebsiella pneumoniae): 0.8 µg/mL (≈ 1.7 µM)
MIC (Shigella flexneri): 0.2 µg/mL (≈ 0.425 µM)
MIC (Staphylococcus aureus [4]): 0.4 µg/mL (≈ 0.85 µM)

Cn1nnnc1SCC1=C(C(=O)[O-])N2C(=O)[C@@H](NC(=O)CS(C)(=O)=O)[C@H]2SC1.[Na+]
MIC (Escherichia coli [1]): 1.6 µg/mL
MIC (Klebsiella aerogenes): 25 µg/mL
Activity (Pseudomonas aeruginosa): inactive
Activity (Staphylococcus aureus [2]): Active
ED50 (Escherichia coli [3]): 7 mg/kg
MIC (Salmonella paratyphi): 0.8 µg/mL
MIC (Klebsiella pneumoniae): 1.6 µg/mL
MIC (Shigella flexneri): 1.6 µg/mL
MIC (Staphylococcus aureus [4]): 1.6 µg/mL
MIC (Enterococcus faecalis): > 13 µg/mL

Cn1nnnc1SCC1=C(C(=O)[O-])N2C(=O)[C@@H](NC(=O)CS(N)(=O)=O)[C@H]2SC1.[Na+]
MIC (Escherichia coli [1]): 3.1 µg/mL
MIC (Klebsiella aerogenes): 13 µg/mL
Activity (Pseudomonas aeruginosa): inactive
Activity (Staphylococcus aureus [2]): Active
ED50 (Escherichia coli [3]): 38 mg/kg
MIC (Salmonella paratyphi): 1.6 µg/mL
MIC (Klebsiella pneumoniae): 13 µg/mL
MIC (Shigella flexneri): 3.1 µg/mL
MIC (Staphylococcus aureus [4]): 1.6 µg/mL
MIC (Enterococcus faecalis): > 13 µg/mL

CCCS(=O)(=O)CC(=O)N[C@@H]1C(=O)N2C(C(=O)O)=C(COC(C)=O)CS[C@H]12
MIC (Escherichia coli [1]): 13 µg/mL (≈ 30.9 µM)
MIC (Klebsiella aerogenes): 200 µg/mL (≈ 476 µM)
Activity (Pseudomonas aeruginosa): inactive
Activity (Staphylococcus aureus [2]): Active
ED50 (Escherichia coli [3]): 56 mg/kg
MIC (Salmonella paratyphi): 3.1 µg/mL (≈ 7.37 µM)
MIC (Klebsiella pneumoniae): 6.2 µg/mL (≈ 14.7 µM)
MIC (Shigella flexneri): 13 µg/mL (≈ 30.9 µM)
MIC (Staphylococcus aureus [4]): 0.8 µg/mL (≈ 1.9 µM)
MIC (Enterococcus faecalis): > 13 µg/mL

CCCCS(=O)(=O)CC(=O)N[C@@H]1C(=O)N2C(C(=O)[O-])=C(CSc3nnnn3C)CS[C@H]12.[Na+]
MIC (Escherichia coli [1]): 3.1 µg/mL
MIC (Klebsiella aerogenes): 13 µg/mL
Activity (Pseudomonas aeruginosa): inactive
Activity (Staphylococcus aureus [2]): Active
ED50 (Escherichia coli [3]): 21 mg/kg
MIC (Salmonella paratyphi): 1.6 µg/mL
MIC (Klebsiella pneumoniae): 3.1 µg/mL
MIC (Shigella flexneri): 3.1 µg/mL
MIC (Staphylococcus aureus [4]): 0.4 µg/mL
MIC (Enterococcus faecalis): > 13 µg/mL

Cn1nnnc1SCC1=C(C(=O)O)N2C(=O)[C@@H](NC(=O)CS(=O)(=O)c3ccccc3)[C@H]2SC1
MIC (Escherichia coli [1]): 3.1 µg/mL (≈ 6.07 µM)
MIC (Klebsiella aerogenes): 13 µg/mL (≈ 25.5 µM)
Activity (Pseudomonas aeruginosa): inactive
Activity (Staphylococcus aureus [2]): Active
ED50 (Escherichia coli [3]): 25 mg/kg
MIC (Salmonella paratyphi): 6.2 µg/mL (≈ 12.1 µM)
MIC (Klebsiella pneumoniae): 3.1 µg/mL (≈ 6.07 µM)
MIC (Shigella flexneri): 1.6 µg/mL (≈ 3.13 µM)
MIC (Staphylococcus aureus [4]): 0.4 µg/mL (≈ 0.783 µM)
MIC (Enterococcus faecalis): > 13 µg/mL

CC(=O)OCC1=C(C(=O)[O-])N2C(=O)[C@@H](NC(=O)CS(C)(=O)=O)[C@H]2SC1.[Na+]
MIC (Escherichia coli [1]): 13 µg/mL
MIC (Klebsiella aerogenes): > 200 µg/mL
Activity (Pseudomonas aeruginosa): inactive
Activity (Staphylococcus aureus [2]): Active
ED50 (Escherichia coli [3]): 62 mg/kg
MIC (Salmonella paratyphi): 13 µg/mL
MIC (Klebsiella pneumoniae): 13 µg/mL
MIC (Shigella flexneri): 13 µg/mL
MIC (Staphylococcus aureus [4]): 3.1 µg/mL
MIC (Enterococcus faecalis): > 13 µg/mL

Cn1cnnc1SCC1=C(C(=O)[O-])N2C(=O)[C@@H](NC(=O)CS(C)(=O)=O)[C@H]2SC1.[Na+]
MIC (Escherichia coli [1]): 6.2 µg/mL
MIC (Klebsiella aerogenes): > 200 µg/mL
Activity (Pseudomonas aeruginosa): inactive
Activity (Staphylococcus aureus [2]): Active
ED50 (Escherichia coli [3]): 22 mg/kg
MIC (Salmonella paratyphi): 3.1 µg/mL
MIC (Klebsiella pneumoniae): 6.2 µg/mL
MIC (Staphylococcus aureus [4]): 3.1 µg/mL
MIC (Enterococcus faecalis): > 13 µg/mL

CC(C(=O)N[C@@H]1C(=O)N2C(C(=O)[O-])=C(CSc3nnnn3C)CS[C@H]12)S(C)(=O)=O.[Na+] (stereo partly drawn)
MIC (Escherichia coli [1]): 6.2 µg/mL
MIC (Klebsiella aerogenes): 13 µg/mL
Activity (Pseudomonas aeruginosa): inactive
Activity (Staphylococcus aureus [2]): Active
ED50 (Escherichia coli [3]): 50 mg/kg
MIC (Salmonella paratyphi): 6.2 µg/mL
MIC (Klebsiella pneumoniae): 6.2 µg/mL
MIC (Shigella flexneri): 3.1 µg/mL
MIC (Staphylococcus aureus [4]): 3.1 µg/mL
MIC (Enterococcus faecalis): > 13 µg/mL

CC(=O)OCC1=C(C(=O)[O-])N2C(=O)[C@@H](NC(=O)CS(=O)(=O)c3ccccc3)[C@H]2SC1.[Na+]
MIC (Escherichia coli [1]): 50 µg/mL
MIC (Klebsiella aerogenes): > 200 µg/mL
Activity (Pseudomonas aeruginosa): inactive
Activity (Staphylococcus aureus [2]): Active
MIC (Salmonella paratyphi): 13 µg/mL
MIC (Klebsiella pneumoniae): 13 µg/mL
MIC (Shigella flexneri): 25 µg/mL
MIC (Staphylococcus aureus [4]): 1.6 µg/mL
MIC (Enterococcus faecalis): > 13 µg/mL

CCS(=O)(=O)CC(=O)N[C@@H]1C(=O)N2C(C(=O)[O-])=C(CSc3nnnn3C)CS[C@H]12.[Na+]
MIC (Escherichia coli [1]): 1.6 µg/mL
MIC (Klebsiella aerogenes): 100 µg/mL
Activity (Pseudomonas aeruginosa): inactive
Activity (Staphylococcus aureus [2]): Active
ED50 (Escherichia coli [3]): 7 mg/kg
MIC (Salmonella paratyphi): 0.8 µg/mL
MIC (Klebsiella pneumoniae): 1.6 µg/mL
MIC (Shigella flexneri): 1.6 µg/mL
MIC (Staphylococcus aureus [4]): 0.8 µg/mL
MIC (Enterococcus faecalis): > 13 µg/mL

CCCCS(=O)(=O)CC(=O)N[C@@H]1C(=O)N2C(C(=O)[O-])=C(CSc3nnc(C)s3)CS[C@H]12.[Na+]
MIC (Escherichia coli [1]): 6.2 µg/mL
MIC (Klebsiella aerogenes): 25 µg/mL
Activity (Pseudomonas aeruginosa): inactive
Activity (Staphylococcus aureus [2]): Active
ED50 (Escherichia coli [3]): > 50 mg/kg
MIC (Salmonella paratyphi): 1.6 µg/mL
MIC (Klebsiella pneumoniae): 6.2 µg/mL
MIC (Shigella flexneri): 6.2 µg/mL
MIC (Staphylococcus aureus [4]): 0.1 µg/mL
MIC (Enterococcus faecalis): > 13 µg/mL

CCS(=O)(=O)CC(=O)N[C@@H]1C(=O)N2C(C(=O)O)=C(CSc3nnc(C)s3)CS[C@H]12
MIC (Escherichia coli [1]): 3.1 µg/mL (≈ 6.48 µM)
MIC (Klebsiella aerogenes): 100 µg/mL (≈ 209 µM)
Activity (Pseudomonas aeruginosa): inactive
Activity (Staphylococcus aureus [2]): Active
ED50 (Escherichia coli [3]): 8 mg/kg
MIC (Salmonella paratyphi): 1.6 µg/mL (≈ 3.34 µM)
MIC (Klebsiella pneumoniae): 1.6 µg/mL (≈ 3.34 µM)
MIC (Shigella flexneri): 6.2 µg/mL (≈ 13 µM)
MIC (Staphylococcus aureus [4]): 0.4 µg/mL (≈ 0.836 µM)
MIC (Enterococcus faecalis): > 13 µg/mL

CS(=O)(=O)CC(=O)N[C@@H]1C(=O)N2C(C(=O)[O-])=C(CSc3nnn[nH]3)CS[C@H]12.[Na+]
MIC (Escherichia coli [1]): 50 µg/mL
MIC (Klebsiella aerogenes): > 200 µg/mL
Activity (Pseudomonas aeruginosa): inactive
Activity (Staphylococcus aureus [2]): Active
ED50 (Escherichia coli [3]): 45 mg/kg
MIC (Salmonella paratyphi): 3.1 µg/mL
MIC (Klebsiella pneumoniae): 3.1 µg/mL
MIC (Shigella flexneri): 25 µg/mL
MIC (Staphylococcus aureus [4]): 6.2 µg/mL
MIC (Enterococcus faecalis): > 13 µg/mL

CC(=O)OCC1=C(C(=O)O)N2C(=O)[C@@H](NC(=O)Cc3cccs3)[C@H]2SC1 [CEPHALOTHIN]
MIC (Escherichia coli [1]): 3.1 µg/mL (≈ 7.82 µM)
MIC (Klebsiella aerogenes): 50 µg/mL (≈ 126 µM)
Activity (Staphylococcus aureus [2]): Active
ED50 (Escherichia coli [3]): 50 mg/kg
MIC (Salmonella paratyphi): 1.6 µg/mL (≈ 4.04 µM)
MIC (Klebsiella pneumoniae): 3.1 µg/mL (≈ 7.82 µM)
MIC (Shigella flexneri): 6.2 µg/mL (≈ 15.6 µM)
MIC (Staphylococcus aureus [4]): 0.2 µg/mL (≈ 0.504 µM)

Cc1nnc(SCC2=C(C(=O)O)N3C(=O)[C@@H](NC(=O)Cn4cnnn4)[C@H]3SC2)s1 [CEFAZOLIN]
MIC (Escherichia coli [1]): 0.8 µg/mL (≈ 1.76 µM)
MIC (Klebsiella aerogenes): 1.6 µg/mL (≈ 3.52 µM)
Activity (Staphylococcus aureus [2]): Active
ED50 (Escherichia coli [3]): 6 mg/kg
MIC (Salmonella paratyphi): 0.8 µg/mL (≈ 1.76 µM)
MIC (Klebsiella pneumoniae): 0.8 µg/mL (≈ 1.76 µM)
MIC (Shigella flexneri): 0.4 µg/mL (≈ 0.88 µM)
MIC (Staphylococcus aureus [4]): 0.4 µg/mL (≈ 0.88 µM)

CC(=O)OCC1=C(C(=O)[O-])N2C(=O)[C@@H](NC(=O)C(C)S(C)(=O)=O)[C@H]2SC1.[Na+] (stereo partly drawn)
MIC (Escherichia coli [1]): 25 µg/mL
MIC (Klebsiella aerogenes): 50 µg/mL
Activity (Pseudomonas aeruginosa): inactive
Activity (Staphylococcus aureus [2]): Active
MIC (Salmonella paratyphi): 13 µg/mL
MIC (Klebsiella pneumoniae): 3.1 µg/mL
MIC (Shigella flexneri): 25 µg/mL
MIC (Staphylococcus aureus [4]): 3.1 µg/mL
MIC (Enterococcus faecalis): > 13 µg/mL

CS(=O)(=O)CC(=O)N[C@@H]1C(=O)N2C(C(=O)[O-])=C(CSc3cnn[nH]3)CS[C@H]12.[Na+]
MIC (Escherichia coli [1]): 13 µg/mL
MIC (Klebsiella aerogenes): > 200 µg/mL
Activity (Pseudomonas aeruginosa): inactive
Activity (Staphylococcus aureus [2]): Active
MIC (Salmonella paratyphi): 6.2 µg/mL
MIC (Klebsiella pneumoniae): 6.2 µg/mL
MIC (Shigella flexneri): 13 µg/mL
MIC (Staphylococcus aureus [4]): 1.6 µg/mL
MIC (Enterococcus faecalis): > 13 µg/mL

CC(=O)OCC1=C(C(=O)[O-])N2C(=O)[C@@H](NC(=O)CS(N)(=O)=O)[C@H]2SC1.[Na+]
MIC (Escherichia coli [1]): 50 µg/mL
MIC (Klebsiella aerogenes): 200 µg/mL
Activity (Pseudomonas aeruginosa): inactive
Activity (Staphylococcus aureus [2]): Active
MIC (Salmonella paratyphi): 13 µg/mL
MIC (Klebsiella pneumoniae): 25 µg/mL
MIC (Shigella flexneri): 25 µg/mL
MIC (Staphylococcus aureus [4]): 1.6 µg/mL
MIC (Enterococcus faecalis): > 13 µg/mL

Cc1nnc(SCC2=C(C(=O)[O-])N3C(=O)[C@@H](NC(=O)CS(C)(=O)=O)[C@H]3SC2)s1.[Na+]
MIC (Escherichia coli [1]): 13 µg/mL
MIC (Klebsiella aerogenes): > 200 µg/mL
Activity (Pseudomonas aeruginosa): inactive
Activity (Staphylococcus aureus [2]): Active
MIC (Salmonella paratyphi): 3.1 µg/mL
MIC (Klebsiella pneumoniae): 3.1 µg/mL
MIC (Shigella flexneri): 13 µg/mL
MIC (Staphylococcus aureus [4]): 1.6 µg/mL
MIC (Enterococcus faecalis): > 13 µg/mL

Reference: ChEMBL document CHEMBL3272096, “Semisynthetic cephalosporins. Synthesis and structure-activity relationships of 7-sulfonylacetamido-3-cephem-4-carboxylic acids” (1976)
